The values below come from patent publication US20090170091A1, “Method For Predicting Biological Systems Responses” (priority 2006, published 2009).

SMILES strings stand for the structures. Where two headings read alike, the source gives them in different places.

In one data set the test system is HeLa cells. The conditions noted are these: HeLa cells after camptothecin treatment; mRNA abundance; cited from earlier work.
The next data set relates to HepG2 cells. Briefly: CellCipher cytotox profile, multiplexed HCS toxicity panel (11 cytotoxicity parameters, two plate assay). In kind it is cell-based. An excerpt: This example pertains to a multiplexed toxicity HCS profiling panel. It describes the performance of a specific CellCipher™ cytotox profile which is designed to measure 11 cytotoxicity parameters using a two plate assay.
Assay and Reagent Specifications. […] The antibody and fluorescent indicators of cell physiology reagent specifications for Cytotox Profile Plate 1 are contained in Table 7 whereas the antibody and fluorescent indicators of cell physiology reagent specifications for Cytotox Profile Plate 2 are contained in Table 8. Finally, the assay buffer specifications for both Cytotox Profile Plates 1 and 2 are contained in Table 9.
HepG2 cell handling and plating procedure. HepG2 cells were obtained from the American Type Cell Collection (cat no. HB-8065) and an original seed stock was prepared from one vial containing 1×10^+6 cells. From the seed stock, a working stock was prepared using standard procedures. Cells were thawed form the working stock when required and maintained in culture for 20 passages before being discarded. […]
Cell plating for cytotox profile. For the cytotox profile, thin bottom 384-well microplates were used that are compatible with the high numerical aperture optics available on most HCS readers. […] Cells were passaged by trypsinization, including trituration, and viable cells counted. […]

As to `CC[C@@]1(O)C(=O)OCc2c1cc1n(c2=O)Cc2cc3ccccc3nc2-1` [camptothecin], in the data set on HeLa cells, the “Double strand DNA break repair genes, change” value is on record as 4.0%; the “Histone genes, change” value is reported as 8.1%; the “Mitosis related genes, change” value is 9.7%; the “NF-κB inducible genes, change” value is 12.5%. For the same compound, in the data set on HeLa cells, the “Nuclear compartment genes, change” value was 16.5% and the “p53-inducible genes, change” value is reported as 28.1%.

Turning to `CC[C@H](C)C(=O)O[C@H]1C[C@@H](C)C=C2C=C[C@H](C)[C@H](CC[C@@H]3C[C@@H](O)CC(=O)O3)[C@H]21` [lovastatin], in the data set with HepG2 cells (HepG2 cells, 11 features at 30 min, 24 h and 72 h, FIG. 9 heat map clusters), the “degree of activity (IC50 from KS dose-response fits) across the cytotox profile assays” value is recorded as “moderate degree of activity (in the μM range) in many assays”.

Take `CC[C@H](C)C(=O)O[C@H]1CCC=C2C=C[C@H](C)[C@H](CC[C@@H]3C[C@@H](O)CC(=O)O3)[C@H]21` [mevastatin]: in the data set on HepG2 cells, the “degree of activity (IC50 from KS dose-response fits) across the cytotox profile assays” value is “moderate degree of activity (in the μM range) in many assays”.
